Measured values published in patent US20150038435A1, “N-TERMINALLY MODIFIED OLIGOPEPTIDES AND USES THEREOF” (Novo Nordisk A/S, priority 2012, published 2015).
Starred links: 1 amine or outer side, 2 acyl side, 3 side chain; linkers in the order of their positions; H or OH if unused. Non-standard residues stand in square brackets, D forms with d. *: point of attachment. γGlu = O=C(O)[C@H](CCC(=O)[*:2])N[*:1]; Stearoyl = CCCCCCCCCCCCCCCCCC(=O)*; Lauroyl = CCCCCCCCCCCC(=O)*; Decanoyl = CCCCCCCCCC(=O)*

Tests used:
Chymotrypsin = experiment: Inhibition of enzymatic degradation of a model GLP-1 (FRET substrate) by chymotrypsin; format: biochemical; details: for EC50: read-out: EC50 Chymotrypsin (0.001 mg/ml), 0.001 mg/ml chymotrypsin, 37° C., ± standard error if at least 3 measurements
Description: (§1) The use of Förster resonance energy transfer (FRET), also known as fluorescence resonance energy transfer, substrates to monitor activity of proteolytic enzymes is known in the field (for example Anjuere, F. et al. (1993). Biochem J 291 (Pt 3), 869-73).
(§2) Model GLP-1 analogue was designed as FRET substrate by incorporation of 7-Methoxycoumarin-4-acetic acid (MCA) group as the donor chromophore and dinitrophenol group (DNP) as the acceptor chromophore.
(§3) An assay following the increase in fluorescence as a function of time was established in 96 well format using Varioskan Flash Multimode Meter (Thermo Scientific). Each well contained 70 μl of Dulbecco's phosphate buffer saline (Invitrogen catalogue #14190-094), 10 μl of 100 μM GLP-1 FRET substrate, 10 μl of N-terminally acylated peptide or oligopeptide of the invention in varying concentration and 10 μl of a stock solution of an enzyme (chymotrypsin, trypsin, elastase, etc.). The incubations were performed at 37° C. Fluorescence (320 nm excitation wavelength and 405 nm emission wavelength) was measured immediately after addition of the enzyme to the 96 well plate and also every minute for at least the next 30 minutes. The concentration of the enzyme was optimized to allow determination of slopes for the time course of initial fluorescence increase with and without the N-terminally acylated peptides or oligopeptides of the invention. The slopes were determined by linear regression of the linear part of the fluorescence trace (for example, the first 10 min of the reaction). Each assay was performed in duplicate and average of the two traces was included in the calculations. The relative effect of N-terminally acylated peptide or oligopeptides of the invention on enzymatic degradation of GLP-1 FRET substrate was obtained by comparison of the slopes achieved by the same concentration of the N-terminally acylated peptide or oligopeptides. […] This was done by plotting the slopes achieved with different concentrations of the N-terminally acylated peptide or oligopeptides of the invention as a function of their concentrations and fitting the experimental results using, for example, sigmoidal logistic regression (2 parameters, Sigma Plot v 11). Inhibition constants for the interaction between the N-terminally acylated peptide or oligopeptides of the invention and proteolytic enzymes were also obtained by performing the assay described above with varying concentrations of the inhibitor and substrate and analyzing the results, for example, by double reciprocal transformation as known to the person skilled in the art and described for example in Hubalek, F. et al., J. Med. Chem. 47, 1760-1766 (2004).
(§4) The EC50 was determined for the following compounds. EC50±standard error is reported if the results of at least 3 independent measurements were available.

Trypsin = experiment: Inhibition of enzymatic degradation of a model GLP-1 (FRET substrate) by trypsin; format: biochemical; details: for EC50: read-out: EC50 Trypsin (0.001 mg/ml), 0.001 mg/ml trypsin, 37° C.
Description: as §1, §2, §3, §4

[1] = Hydrophobicity: retention time during reverse phase HPLC; format: physicochemical; details: Acquity CSH C18; pH 7.2 buffer/CH3CN gradient; 40° C.
Description: The retention time (RT) during reverse phase HPLC was taken as a measure of hydrophobicity of an N-terminally modified peptide or oligopeptide of the invention, where the connection is: The longer the RT, the more hydrophobic N-terminally modified peptide or oligopeptide. The following running conditions were applied during HPLC analysis:
Buffer B: 70% (v/v) aq. CH3CN

[2] = compound 0.1 mM, buffer containing 8% DMSO

Substance | RT (retention time during reverse phase HPLC as a measure of hydrophobicity) [1] | Slope of the initial increase in fluorescence obtained during incubation with 0.001 mg/ml Chymotrypsin (Chymotrypsin; [2]) | Slope of the initial increase in fluorescence obtained during incubation with 0.001 mg/ml Trypsin (Trypsin; [2]) | EC50 (Chymotrypsin) | other results
N-dodecanoyl-βAla-βAla-Pro-Phe-OH [Example 10] | 6.04 min | – | – | – | Slope of the initial increase in fluorescence obtained during incubation with 0.001 mg/ml Chymotrypsin (Chymotrypsin; compound 1 mM): 0.05; Slope of the initial increase in fluorescence obtained during incubation with 0.001 mg/ml Trypsin (Trypsin; compound 1 mM): 3.29
N-dodecanoyl-Ala-Met-Pro-Tyr-OH (Lauroyl-AMPY-OH; SMILES CCCCCCCCCCCC(=O)N[C@@H](C)C(=O)N[C@@H](CCSC)C(=O)N1CCC[C@H]1C(=O)N[C@@H](Cc1ccc(O)cc1)C(=O)O) [Example 83] | 6.88 min | 0.32 | 1.64 | – | –
N-dodecanoyl-γGlu-Ala-Ala-Pro-Phe-OH [Example 12] | 4.04 min | – | – | – | Slope of the initial increase in fluorescence obtained during incubation with 0.001 mg/ml Chymotrypsin (Chymotrypsin; compound 1 mM): 0.76; Slope of the initial increase in fluorescence obtained during incubation with 0.001 mg/ml Trypsin (Trypsin; compound 1 mM): 0.30
N-dodecanoyl-Ala-Thr-Pro-Tyr-OH (Lauroyl-ATPY-OH; SMILES CCCCCCCCCCCC(=O)N[C@@H](C)C(=O)N[C@H](C(=O)N1CCC[C@H]1C(=O)N[C@@H](Cc1ccc(O)cc1)C(=O)O)[C@@H](C)O) [Example 87] | 5.76 min | 0.48 | 1.91 | – | –
N-dodecanoyl-Ala-Ala-Ile-Tyr-OH (Lauroyl-AAIY-OH; SMILES CCCCCCCCCCCC(=O)N[C@@H](C)C(=O)N[C@@H](C)C(=O)N[C@H](C(=O)N[C@@H](Cc1ccc(O)cc1)C(=O)O)[C@@H](C)CC) [Example 65] | 3.12 min | 2.04 | 1.60 | – | –
N-dodecanoyl-Ala-Ala-Ala-Pro-Tyr-OH [Example 56] | 5.74 min | 0.59 | 1.92 | – | –
N-dodecanoyl-Ser-Ala-Pro-Tyr-OH (Lauroyl-SAPY-OH; SMILES CCCCCCCCCCCC(=O)N[C@@H](CO)C(=O)N[C@@H](C)C(=O)N1CCC[C@H]1C(=O)N[C@@H](Cc1ccc(O)cc1)C(=O)O) [Example 51] | 5.2 min | 0.41 | 1.66 | – | –
N-dodecanoyl-Ala-Lys-Pro-Tyr-OH (Lauroyl-AKPY-OH; SMILES CCCCCCCCCCCC(=O)N[C@@H](C)C(=O)N[C@@H](CCCCN)C(=O)N1CCC[C@H]1C(=O)N[C@@H](Cc1ccc(O)cc1)C(=O)O) [Example 82] | 5.07 min | 0.24 | 1.50 | – | –
N-dodecanoyl-Ala-Phe-Pro-Tyr-OH (Lauroyl-AFPY-OH; SMILES CCCCCCCCCCCC(=O)N[C@@H](C)C(=O)N[C@@H](Cc1ccccc1)C(=O)N1CCC[C@H]1C(=O)N[C@@H](Cc1ccc(O)cc1)C(=O)O) [Example 84] | 7.77 min | 0.14 | 1.43 | – | –
N-dodecanoyl-Ala-Ala-Gln-Tyr-OH (Lauroyl-AAQY-OH; SMILES CCCCCCCCCCCC(=O)N[C@@H](C)C(=O)N[C@@H](C)C(=O)N[C@@H](CCC(N)=O)C(=O)N[C@@H](Cc1ccc(O)cc1)C(=O)O) [Example 61] | 8.28 min | 2.20 | 2.07 | – | –
N-dodecanoyl-Aib-Aib-Pro-Phe-OH [Example 7] | 8.06 min | – | – | – | Slope of the initial increase in fluorescence obtained during incubation with 0.001 mg/ml Chymotrypsin (Chymotrypsin; compound 1 mM): 0.34; Slope of the initial increase in fluorescence obtained during incubation with 0.001 mg/ml Trypsin (Trypsin; compound 1 mM): 0.49
N-dodecanoyl-Ala-Ala-Glu-Tyr-OH (Lauroyl-AAEY-OH; SMILES CCCCCCCCCCCC(=O)N[C@@H](C)C(=O)N[C@@H](C)C(=O)N[C@@H](CCC(=O)O)C(=O)N[C@@H](Cc1ccc(O)cc1)C(=O)O) [Example 62] | 4.36 min | 1.35 | 1.66 | – | –
N-tetradecanoyl-βAla-βAla-βAla-βAla-Pro-Phe-OH [Example 137] | 7.7 min | – | – | > 500 µM | –
N-dodecanoyl-Ala-Ala-Pro-Tyr-OH [Example 17] (Lauroyl-AAPY-OH; SMILES CCCCCCCCCCCC(=O)N[C@@H](C)C(=O)N[C@@H](C)C(=O)N1CCC[C@H]1C(=O)N[C@@H](Cc1ccc(O)cc1)C(=O)O) | 5.83 min | – | – | – | –
N-tetradecanoyl-γGlu-βAla-βAla-Pro-Phe-OH [Example 139] | 4.95 min | – | – | > 500 µM | –
N-dodecanoyl-Ala-Ala-Pro-Phe-Pro-OH [Example 24] | 6.88 min | – | – | 379 µM | –
N-dodecanoyl-γGlu-Ala-Pro-Phe-OH (Lauroyl-[γGlu]APF-OH; SMILES CCCCCCCCCCCC(=O)N[C@@H](CCC(=O)N[C@@H](C)C(=O)N1CCC[C@H]1C(=O)N[C@@H](Cc1ccccc1)C(=O)O)C(=O)O) [Example 22] | 4.09 min | – | – | > 500 µM | –
N-dodecanoyl-γGlu-Ala-Pro-Arg-OH (Lauroyl-[γGlu]APR-OH; SMILES CCCCCCCCCCCC(=O)N[C@@H](CCC(=O)N[C@@H](C)C(=O)N1CCC[C@H]1C(=O)N[C@@H](CCCNC(=N)N)C(=O)O)C(=O)O) [Example 21] | 3.66 min | – | – | > 500 µM | –
N-dodecanoyl-γGlu-Ala-Ala-Pro-Arg-OH [Example 25] | 3.66 min | – | – | > 500 µM | –
N-decanoyl-Ala-Ala-Pro-Arg-OH (Decanoyl-AAPR-OH; SMILES CCCCCCCCCC(=O)N[C@@H](C)C(=O)N[C@@H](C)C(=O)N1CCC[C@H]1C(=O)N[C@@H](CCCNC(=N)N)C(=O)O) [Example 20] | 3.79 min | – | – | > 500 µM | –
N-tetradecanoyl-eLys-His-Ala-Arg-Pro-Phe-OH [Example 196] | – | – | – | 6 µM | EC50 (Trypsin): 75 µM
N-tetradecanoyl-Trp-Pro-Tyr-OH [Example 153] | – | – | – | 38 µM | EC50 (Trypsin): 43 µM
N-tetradecanoyl-Glu-Ala-Ala-Pro-Trp-OH [Example 143] | – | – | – | 14 µM | EC50 (Trypsin): 388 µM
N-dodecanoyl-Ala-Ala-Ala-Pro-Phe-OH [Example 18] | 6.59 min | – | – | 167 µM | –
N-icosanoyl-γGlu-Ala-Pro-Phe-OH (icosanoyl-[γGlu]APF-OH) [Example 151] | – | – | – | 9 µM | EC50 (Trypsin): 13 µM
N-octadecanoyl-γGlu-Ala-Pro-Phe-OH (Stearoyl-[γGlu]APF-OH; SMILES CCCCCCCCCCCCCCCCCC(=O)N[C@@H](CCC(=O)N[C@@H](C)C(=O)N1CCC[C@H]1C(=O)N[C@@H](Cc1ccccc1)C(=O)O)C(=O)O) [Example 150] | – | – | – | 13 µM | EC50 (Trypsin): 22 µM
